Test results as given in ChEMBL document CHEMBL2311407, “Design and synthesis of diazatricyclodecane agonists of the G-protein-coupled receptor 119” (J Med Chem, 2013).
Converted amounts (≈) assume the structure as drawn.

How the values were obtained:
[1] = Aqueous solubility of the compound in PBS at pH 7.4; type: physicochemical
[2] = Aqueous solubility of the compound in PBS at pH 1.2; type: physicochemical
[3] = Apparent intrinsic clearance in human liver microsomes; type: ADME, Microsome; conditions: read-out: CLH(app)

Row | SMILES | solubility [1] | solubility [2] | CLint scaled [3]
1 | Cc1ncccc1Oc1ncnc(N2C3CC4CC2CC(C3)N4C(=O)OC2(C)CC2)c1C | 0.5 µg/mL (≈ 0.00115 mM) | 6800 µg/mL (≈ 15.6 mM) | –
2 | Cc1ncccc1Oc1ncnc(N2C3CC4CC2CC(C3)N4C(=O)OCC(C)C)c1C | – | – | > 30 mL/min/kg
